Tested on: 171881-019-R-J1-PDC complex spheroid growth, % test/control
Test: Anticancer human tumor 171881-019-R-J1-PDC patient-derived invasive breast carcinoma cell line growth inhibition [Asc]
Details: for IC50: curve of first compound; for viability, T/C: stronger effect = lower value
In short: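 Tumor cells were grown as multicellular spheroids with stromal HUVEC and mesenchymal stem cells and treated singly or in combination. Concentrations fell in half-log steps from the clinical Cmax, or from 10 microM where none was known.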

[1] = second compound 0.01 µM, first compound 0.0316 µM
[2] = second compound 0.01 µM, first compound 0.1 µM
[3] = second compound 0.0316 µM, first compound 0.0316 µM
[4] = second compound 0.0316 µM, first compound 0.1 µM
[5] = second compound 0.1 µM, first compound 0.0316 µM
[6] = second compound 0.1 µM, first compound 0.1 µM
[7] = second compound 0.316 µM, first compound 0.0316 µM
[8] = second compound 0.316 µM, first compound 0.1 µM
[9] = second compound 1 µM, first compound 0.0316 µM
[10] = second compound 1 µM, first compound 0.1 µM
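Wherever viability, T/C is given: spheroids exposed to compounds for 7 days.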

For `Cc1nc(N2CCC3(CC2)COC(C)C3N)c(CO)nc1Sc1ccnc(N)c1Cl` (stereo not given) + CCN1C(C(=O)NC23CCC(C(=O)O)(CC2)CC3)C(c2cccc(Cl)c2F)C2(C(=O)Nc3cc(Cl)ccc32)C12CCCCC2, the IC50 (second compound 0.03 µM) was greater than 3 µM, the IC50 (second compound 0.0949 µM) was greater than 3 µM and the IC50 (second compound 0.3 µM) was greater than 3 µM. For the same compound, the IC50 (second compound 0.949 µM) was greater than 3 µM, the IC50 (second compound 3 µM) was greater than 3 µM and the viability, T/C (second compound 0.03 µM, first compound 0.00949 µM) was 87.3%. The viability, T/C (second compound 0.03 µM, first compound 0.03 µM) was 101%, the viability, T/C (second compound 0.03 µM, first compound 0.0949 µM) was 153% and the viability, T/C (second compound 0.03 µM, first compound 0.3 µM) was 152%. It also gave a viability, T/C (second compound 0.03 µM, first compound 0.949 µM) of 126%, a viability, T/C (second compound 0.03 µM, first compound 3 µM) of 109% and a viability, T/C (second compound 0.0949 µM, first compound 0.00949 µM) of 80.7%. It also gave a viability, T/C (second compound 0.0949 µM, first compound 0.03 µM) of 99.1%, a viability, T/C (second compound 0.0949 µM, first compound 0.0949 µM) of 165% and a viability, T/C (second compound 0.0949 µM, first compound 0.3 µM) of 178%. The viability, T/C (second compound 0.0949 µM, first compound 0.949 µM) was 121%, the viability, T/C (second compound 0.0949 µM, first compound 3 µM) was 114% and the viability, T/C (second compound 0.3 µM, first compound 0.00949 µM) was 112%. It also gave a viability, T/C (second compound 0.3 µM, first compound 0.03 µM) of 109%, a viability, T/C (second compound 0.3 µM, first compound 0.0949 µM) of 158% and a viability, T/C (second compound 0.3 µM, first compound 0.3 µM) of 171%. The viability, T/C (second compound 0.3 µM, first compound 0.949 µM) was 141%, the viability, T/C (second compound 0.3 µM, first compound 3 µM) was 103% and the viability, T/C (second compound 0.949 µM, first compound 0.00949 µM) was 90.8%. For the same compound, the viability, T/C (second compound 0.949 µM, first compound 0.03 µM) was 105%, the viability, T/C (second compound 0.949 µM, first compound 0.0949 µM) was 134% and the viability, T/C (second compound 0.949 µM, first compound 0.3 µM) was 184%. For the same compound, the viability, T/C (second compound 0.949 µM, first compound 0.949 µM) was 134%, the viability, T/C (second compound 0.949 µM, first compound 3 µM) was 95.2% and the viability, T/C (second compound 3 µM, first compound 0.00949 µM) was 109%. For the same compound, the viability, T/C (second compound 3 µM, first compound 0.03 µM) was 127%, the viability, T/C (second compound 3 µM, first compound 0.0949 µM) was 175% and the viability, T/C (second compound 3 µM, first compound 0.3 µM) was 166%. The viability, T/C (second compound 3 µM, first compound 0.949 µM) was 122% and the viability, T/C (second compound 3 µM, first compound 3 µM) was 105%.

Work on `Cn1ncnc1[C@H]1c2n[nH]c(=O)c3cc(F)cc(c23)N[C@@H]1c1ccc(F)cc1` + CNC(C)C(=O)NC1CN(S(=O)(=O)c2cccc(S(=O)(=O)N3CCC4CCC(C(=O)NC(c5ccccc5)c5ccccc5)N4C(=O)C(NC(=O)C(C)NC)C3)c2)CCC2CCC(C(=O)NC(c3ccccc3)c3ccccc3)N2C1=O yielded an IC50 (second compound 0.01 µM) greater than 0.1 µM, an IC50 (second compound 0.0316 µM) greater than 0.1 µM and an IC50 (second compound 0.1 µM) greater than 0.1 µM. It also gave an IC50 (second compound 0.316 µM) greater than 0.1 µM, an IC50 (second compound 1 µM) greater than 0.1 µM and a viability, T/C (second compound 0.01 µM, first compound 0.000316 µM) of 78.9%. The viability, T/C (second compound 0.01 µM, first compound 0.001 µM) was 91.9%, the viability, T/C (second compound 0.01 µM, first compound 0.00316 µM) was 95.9% and the viability, T/C (second compound 0.01 µM, first compound 0.01 µM) was 101%. For the same compound, the viability, T/C [1] was 89.3%, the viability, T/C [2] was 95.2% and the viability, T/C (second compound 0.0316 µM, first compound 0.000316 µM) was 103%. It also gave a viability, T/C (second compound 0.0316 µM, first compound 0.001 µM) of 98.5%, a viability, T/C (second compound 0.0316 µM, first compound 0.00316 µM) of 94.8% and a viability, T/C (second compound 0.0316 µM, first compound 0.01 µM) of 104%. It also gave a viability, T/C [3] of 104%, a viability, T/C [4] of 92.4% and a viability, T/C (second compound 0.1 µM, first compound 0.000316 µM) of 95.3%. For the same compound, the viability, T/C (second compound 0.1 µM, first compound 0.001 µM) was 97.1%, the viability, T/C (second compound 0.1 µM, first compound 0.00316 µM) was 101% and the viability, T/C (second compound 0.1 µM, first compound 0.01 µM) was 100%. It also gave a viability, T/C [5] of 96%, a viability, T/C [6] of 89% and a viability, T/C (second compound 0.316 µM, first compound 0.000316 µM) of 94.2%. The viability, T/C (second compound 0.316 µM, first compound 0.001 µM) was 97.4%, the viability, T/C (second compound 0.316 µM, first compound 0.00316 µM) was 94.8% and the viability, T/C (second compound 0.316 µM, first compound 0.01 µM) was 95.3%. The viability, T/C [7] was 97.8%, the viability, T/C [8] was 90.7% and the viability, T/C (second compound 1 µM, first compound 0.000316 µM) was 85%. It also gave a viability, T/C (second compound 1 µM, first compound 0.001 µM) of 98.5%, a viability, T/C (second compound 1 µM, first compound 0.00316 µM) of 93.3% and a viability, T/C (second compound 1 µM, first compound 0.01 µM) of 83.8%. The viability, T/C [9] was 107% and the viability, T/C [10] was 85.5%.

Work on `O=C(c1cc(Cc2n[nH]c(=O)c3ccccc23)ccc1F)N1CCN(C(=O)C2CC2)CC1` + CNC(C)C(=O)NC1CN(S(=O)(=O)c2cccc(S(=O)(=O)N3CCC4CCC(C(=O)NC(c5ccccc5)c5ccccc5)N4C(=O)C(NC(=O)C(C)NC)C3)c2)CCC2CCC(C(=O)NC(c3ccccc3)c3ccccc3)N2C1=O yielded an IC50 (second compound 0.01 µM) greater than 10 µM, an IC50 (second compound 0.0316 µM) greater than 10 µM and an IC50 (second compound 0.1 µM) greater than 10 µM. It also gave an IC50 (second compound 0.316 µM) greater than 10 µM, an IC50 (second compound 1 µM) greater than 10 µM and a viability, T/C [1] of 101%. For the same compound, the viability, T/C [2] was 107%, the viability, T/C (second compound 0.01 µM, first compound 0.316 µM) was 109% and the viability, T/C (second compound 0.01 µM, first compound 1 µM) was 118%. For the same compound, the viability, T/C (second compound 0.01 µM, first compound 3.16 µM) was 104%, the viability, T/C (second compound 0.01 µM, first compound 10 µM) was 128% and the viability, T/C [3] was 100%. For the same compound, the viability, T/C [4] was 105%, the viability, T/C (second compound 0.0316 µM, first compound 0.316 µM) was 93.3% and the viability, T/C (second compound 0.0316 µM, first compound 1 µM) was 128%. For the same compound, the viability, T/C (second compound 0.0316 µM, first compound 3.16 µM) was 107%, the viability, T/C (second compound 0.0316 µM, first compound 10 µM) was 106% and the viability, T/C [5] was 108%. The viability, T/C [6] was 89.4%, the viability, T/C (second compound 0.1 µM, first compound 0.316 µM) was 106% and the viability, T/C (second compound 0.1 µM, first compound 1 µM) was 104%. For the same compound, the viability, T/C (second compound 0.1 µM, first compound 3.16 µM) was 105%, the viability, T/C (second compound 0.1 µM, first compound 10 µM) was 112% and the viability, T/C [7] was 95%. It also gave a viability, T/C [8] of 96.2%, a viability, T/C (second compound 0.316 µM, first compound 0.316 µM) of 99.7% and a viability, T/C (second compound 0.316 µM, first compound 1 µM) of 119%. It also gave a viability, T/C (second compound 0.316 µM, first compound 3.16 µM) of 114%, a viability, T/C (second compound 0.316 µM, first compound 10 µM) of 122% and a viability, T/C [9] of 116%. The viability, T/C [10] was 113%, the viability, T/C (second compound 1 µM, first compound 0.316 µM) was 89.4% and the viability, T/C (second compound 1 µM, first compound 1 µM) was 111%. It also gave a viability, T/C (second compound 1 µM, first compound 3.16 µM) of 103% and a viability, T/C (second compound 1 µM, first compound 10 µM) of 128%.
